# Data from patent US20150017673A1, “COMPOSITIONS AND METHODS FOR DRUG-SENSITIZATION OR INHIBITION OF A CANCER CELL” (priority 2012, published 2015).
# Like-named read-outs stand apart in the source and are kept apart here.
# Tests used:
# ROS in G3 lymphoma cells = assay: Intracellular ROS (CellROX, flow cytometry) in G3 cells; type: cell-based, human; details: 10 uM rifabutin over time
# CRL2631 cells [1] = assay: Modified Boyden chamber invasion assay, CRL2631 cells; type: cell-based, human; details: 10 μM rifabutin 24 hours; DMSO 39,356
# Method: A modified Boyden chamber assay was used as an independent method to evaluate rifabutin's ability to suppress invasion/metastasis. […] Cell invasion was assessed with a Chemicon QCM Collagen Invasion Assay (Millipore). The assay is a 96-well plate assay wherein each well is equipped with a suspended insert. Inserts contain an 8-micron membrane coated with a thin layer of polymerized collagen. Invading cells migrate through the collagen layer and attach to the bottom of the membrane. Cells were detached from the membrane and lysed prior to detection via CyQuant dye. Fluorescence intensity is proportional to number of invading cells. […] In CRL2631 cells RLU decreases from 39,356 to 27,432 RLU in the presence of rifabutin (p<0.05).
# ABCB1 pumps = ABCB1 pumps (Homo sapiens, UniProt P08183); details: NCI/ADR-RES and G3 cells
# CRL2631 cells [2] = assay: Collagen invasion 3D assay, CRL2631 cells; type: cell-based, human; details: 10 uM Rifabutin in collagen matrix, 24 hours
# Method: The effects of rifabutin on cell invasion was assessed in a collagen invasion 3D assay. Increased interest in the use of 3D culture systems has been motivated by accumulating evidence that 3D models better reflect the microenvironment of tumors and metastases and more accurately predict therapeutic response in vivo compared with conventional 2D assays. A collagen invasion 3D assay allows the rapid and quantitative assessment of invasiveness and a means to screen for drugs which alter the invasive phenotype of tumor cells.
# The CHOP-resistant G3 cell line is much more invasive in a collage invasion 3D assay than its CHOP-sensitive parent cell line (CRL2631). Collagen matrices (1 mg/ml) were prepared as previously described in Su, S. C., et al., Molecular profile of endothelial invasion of three-dimensional collagen matrices: insights into angiogenic sprout induction in wound healing. Am. J. Physiol. […] Cell invasion density was quantified by counting fixed cultures under transmitted light using an Olympus CK2 inverted microscope equipped with eyepieces displaying a 10×10 ocular grid. For each condition, four random fields were selected and the number of invading cells per high power field (HPF) was counted manually at 10× magnification, corresponding to 1 mm^2 area. […]
# [3] = system: G3 CHOP-resistant NHL cells
# Method: In a first efficacy study, 6-8 week old female SCID mice (7 mice per treatment arm) were injected subcutaneously on both flanks with 1×10^7 G3 CHOP-resistant NHL cells. Once palpable tumors (about […] size) appeared, therapies (CHOP or CHOP+rifabutin) were started. CHOP was administered at the maximum tolerated dose (cyclophosphamide, 40 mg/kg i.v.; doxorubicin, 3.3 mg/kg i.v.; vincristine, 0.5 mg/kg i.v.; and prednisone, 0.2 mg/kg orally daily for 5 d) weekly for 3 weeks. Rifabutin in an amount of 100 mg/kg was administered on the day of each CHOP treatment and 24-hours later by gavage. Mouse body weight and tumor size were monitored every two days and tumor size measured by caliper. The tumor volume formula (L*W*W)/2 was used to calculate tumor mass.
# A second efficacy study was conducted where mice were treated before the appearance of palpable tumors. In that experiment, one week after transplantation of CHOP-resistant G3 cells, one group (7 mice) was treated with CHOP-only and a second group (8 mice) was treated with CHOP+rifabutin.
# A third study was conducted in which mice injected with CHOP-resistant G3 cells received reduced dosages of CHOP in combination with 33 mg/kg rifabutin. CHOP+rifabutin was administered weekly beginning one week post-inoculation. Control mice were given no CHOP or rifabutin.
# SCID mice were injected with CHOP-resistant G3 cells in the same manner as the first efficacy study above. Treatments began 2 weeks post-inoculation and were administered twice weekly.
# lymphoma cell line G3 = assay: Cell growth assay (resazurin fluorescence) on CHOP-resistant G3 NHL cells; type: cell-based, human; details: for IC50: Homo sapiens
# Method in brief: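 CHOP-resistant G3 NHL cells grown five days in RPMI medium were counted by haemocytometer and set to 625,000 cells/ml. They were then added to plates holding test drug, first dissolved in 100% DMSO and diluted in 0.1M PBS to 0.5% final DMSO. Plates incubated 96 hours at 37° C. and 5% CO2. Resazurin at 20 μg/ml was added for a further 24 hours, and plates were read on a BMG Polarstar at 573-605.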
# [4] = cited from earlier work
# Sequence of ABCB1 pumps (P08183 whole entry): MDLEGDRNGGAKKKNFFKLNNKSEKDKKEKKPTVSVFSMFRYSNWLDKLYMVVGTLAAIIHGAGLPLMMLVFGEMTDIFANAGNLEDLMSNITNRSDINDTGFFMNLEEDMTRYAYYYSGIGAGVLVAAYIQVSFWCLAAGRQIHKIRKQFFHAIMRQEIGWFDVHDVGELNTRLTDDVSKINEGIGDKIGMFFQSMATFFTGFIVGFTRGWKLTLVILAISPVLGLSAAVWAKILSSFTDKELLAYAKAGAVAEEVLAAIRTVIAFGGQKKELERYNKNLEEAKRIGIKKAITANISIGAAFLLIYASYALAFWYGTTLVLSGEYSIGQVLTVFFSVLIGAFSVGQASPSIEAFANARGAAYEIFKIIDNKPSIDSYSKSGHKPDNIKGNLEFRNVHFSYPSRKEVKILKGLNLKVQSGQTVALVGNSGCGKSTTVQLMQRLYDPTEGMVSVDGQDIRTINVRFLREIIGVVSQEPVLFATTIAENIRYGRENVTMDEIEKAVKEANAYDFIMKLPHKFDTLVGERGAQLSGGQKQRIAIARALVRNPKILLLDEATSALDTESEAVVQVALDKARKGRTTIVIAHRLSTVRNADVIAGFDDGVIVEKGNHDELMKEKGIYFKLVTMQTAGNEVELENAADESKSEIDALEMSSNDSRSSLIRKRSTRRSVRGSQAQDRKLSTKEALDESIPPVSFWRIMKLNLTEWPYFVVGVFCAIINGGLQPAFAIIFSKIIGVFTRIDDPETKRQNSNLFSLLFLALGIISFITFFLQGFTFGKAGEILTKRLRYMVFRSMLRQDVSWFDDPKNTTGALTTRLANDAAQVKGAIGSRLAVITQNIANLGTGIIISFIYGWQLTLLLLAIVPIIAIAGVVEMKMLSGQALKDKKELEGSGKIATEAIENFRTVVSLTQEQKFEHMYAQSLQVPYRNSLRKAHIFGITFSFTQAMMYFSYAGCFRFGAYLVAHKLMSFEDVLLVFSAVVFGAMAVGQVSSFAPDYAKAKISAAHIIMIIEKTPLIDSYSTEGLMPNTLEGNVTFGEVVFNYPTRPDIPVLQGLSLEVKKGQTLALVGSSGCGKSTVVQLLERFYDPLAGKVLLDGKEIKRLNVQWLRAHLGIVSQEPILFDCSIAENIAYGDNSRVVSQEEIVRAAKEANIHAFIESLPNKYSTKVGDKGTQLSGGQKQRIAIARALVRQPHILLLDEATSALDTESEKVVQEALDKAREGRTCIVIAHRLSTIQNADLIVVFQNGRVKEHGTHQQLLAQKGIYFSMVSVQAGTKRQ
compound,measurement,setting,value
"CO[C@H]1/C=C/O[C@@]2(C)Oc3c(C)c(O)c4c(c3C2=O)C2=NC3(CCN(CC(C)C)CC3)NC2=C(NC(=O)/C(C)=C\C=C\[C@H](C)[C@H](O)[C@@H](C)[C@@H](O)[C@@H](C)[C@H](OC(C)=O)[C@@H]1C)C4=O [Rifabutin, rifabutin]",ROS induction,ROS in G3 lymphoma cells,rapidly induces ROS
same,relative fluorescence (invading cells),CRL2631 cells [1],"27,432 RLU"
same,inhibition of efflux pumps,ABCB1 pumps,clear inhibition of efflux pumps
same,reduction of invasion,CRL2631 cells [2],Less of this effect
same,overall tumor burden per mouse,"[3]; first study, rifabutin 100 mg/kg by gavage with CHOP at maximum tolerated dose weekly for 3 weeks, versus CHOP only",much lower
same,toxicity of the rifabutin dosage in the mice,"[3]; mouse, in vivo",little or not toxicity
same,injection sites that developed tumors,"[3]; second study, treated before palpable tumors, CHOP+rifabutin group, 6 of 16 sites",37.5%
same,tumor load,"[3]; third study, reduced dosages of CHOP with 33 mg/kg rifabutin weekly, versus untreated mice",significantly less
same,Magnitude of potentiation in combination with doxorubicin,"lymphoma cell line G3; G3, lymphoma B cells",+++ (potentiation greater than 5 fold increase)
same,IC50,"lymphoma cell line G3; analog alone, lymphoma cell line G3, read-out: IC50",> 64 µM
same,IC50,"lymphoma cell line G3; with 1 μM doxorubicin, lymphoma cell line G3, read-out: IC50 (μM) with doxorubicin (1 μM)",0.25 µM
same,Fold increase in potency over DOX alone,lymphoma cell line G3; lymphoma cell line G3,9.4 fold
same,cell growth in the absence of CHOP,"lymphoma cell line G3; rifabutin alone, G3",did not affect the growth
same,initial half-life,[4]; biphasic plasma elimination,approximately 4 hours
same,mean terminal half-life,[4]; biphasic plasma elimination,45 (±17) hours
same,mean (±SD) peak plasma concentration (Cmax),[4]; single oral dose of 300 mg,375 (±267) ng/mL
